What was measured:
kochia = test: Test C pre-/postemergence test; format: in vivo, Kochia scoparia
Outline: (§1)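 Test chemicals were formulated with surfactant in a non-phytotoxic solvent and sprayed both on freshly planted seeds (preemergence) and on 1- to 4-leaf plants of 2–18 cm (postemergence). Flooded-paddy pots received compound directly into 3 cm of standing water, maintained for the test.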

wild oat = test: Test C pre-/postemergence test; format: in vivo, Avena fatua; conditions: for Plant response rating, Oat, Wild: 31 g ai/ha, scale 0 to 100 (0 no effect, 100 complete control)
Outline: as §1

blackgrass = test: Test C pre-/postemergence test; format: in vivo, Alopecurus myosuroides; conditions: for Plant response rating, Blackgrass: 31 g ai/ha, scale 0 to 100 (0 no effect, 100 complete control)
Outline: as §1

catchweed bedstraw = test: Test C pre-/postemergence test; format: in vivo, Galium aparine; conditions: for Plant response rating, Galium: 31 g ai/ha, scale 0 to 100 (0 no effect, 100 complete control)
Outline: as §1

corn = test: Test A pre-/postemergence greenhouse test; format: in vivo, Zea mays; conditions: for Corn plant response rating: 0 to 100 scale; for Plant response rating, Corn: 0 to 100 scale where 0 is no effect and 100 is complete control
Outline: (§2)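 Sowing in loam/sand; same-day pre (directed soil spray) and post (foliar, 1–2 leaf, 2–10 cm) treatment with surfactant-containing non-phytotoxic solvent formulation; ~10 days in greenhouse; eye-scored injury against untreated plants.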

duck salad = test: Test C flooded paddy test; format: in vivo, Heteranthera limosa; conditions: Flood
Outline: (§3)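 Flooded 3 cm over soil; compound into paddy water; depth kept constant. Greenhouse 13–15 d.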

redroot pigweed = test: Test A pre-/postemergence greenhouse test; format: in vivo, Amaranthus retroflexus; conditions: for Pigweed plant response rating: 0 to 100 scale; for Plant response rating, Pigweed: 0 to 100 scale where 0 is no effect and 100 is complete control
Outline: as §2

barnyardgrass = test: Test C flooded paddy test; format: in vivo, Echinochloa crus-galli; conditions: Flood
Outline: as §3

pigweed = test: Test C pre-/postemergence test; format: in vivo, Amaranthus retroflexus; conditions: for Plant response rating, Pigweed: 31 g ai/ha, scale 0 to 100 (0 no effect, 100 complete control)
Outline: as §1

velvetleaf = test: Test C pre-/postemergence test; format: in vivo, Abutilon theophrasti; conditions: for Plant response rating, Velvetleaf: 31 g ai/ha, scale 0 to 100 (0 no effect, 100 complete control)
Outline: as §1

rice = test: Test C flooded paddy test; format: in vivo, Oryza sativa; conditions: Flood
Outline: as §3

wheat = test: Test C pre-/postemergence test; format: in vivo, Triticum aestivum; conditions: for Plant response rating, Wheat: 31 g ai/ha, scale 0 to 100 (0 no effect, 100 complete control)
Outline: as §1

Surinam grass = test: Test C pre-/postemergence test; format: in vivo, Brachiaria decumbens; conditions: for Plant response rating, Surinam Grass: 31 g ai/ha, scale 0 to 100 (0 no effect, 100 complete control)
Outline: as §1

[1] = tested on: common (oilseed) sunflower; test: Test C pre-/postemergence test; format: in vivo, Helianthus annuus; conditions: for Plant response rating, Sunflower: 31 g ai/ha, scale 0 to 100 (0 no effect, 100 complete control)
Outline: as §1

bermudagrass = test: Test C pre-/postemergence test; format: in vivo, Cynodon dactylon; conditions: for Plant response rating, Bermudagrass: 31 g ai/ha
Outline: as §1

crabgrass = test: Test C pre-/postemergence test; format: in vivo, Digitaria sanguinalis; conditions: for Plant response rating, Crabgrass, Large: 31 g ai/ha, scale 0 to 100 (0 no effect, 100 complete control)
Outline: as §1

eastern black nightshade = test: Test C pre-/postemergence test; format: in vivo, Solanum ptycanthum; conditions: for Plant response rating, Nightshade: 31 g ai/ha, scale 0 to 100 (0 no effect, 100 complete control)
Outline: as §1

[2] = 62 g ai/ha, Preemergence, scale 0 to 100
[3] = preemergence, 125 g ai/ha, scale 0 (no effect) to 100 (complete control)
[4] = Postemergence, 125 g ai/ha, 0 is no effect, 100 is complete control
[5] = Postemergence, 500 g ai/ha, 0 is no effect, 100 is complete control
[6] = Preemergence, 125 g ai/ha, 0 no effect, 100 complete control
[7] = 31 g ai/ha, scale 0 to 100 (0 no effect, 100 complete control)
[8] = 62 g ai/ha, scale 0 to 100, 0 no effect, 100 complete control, 13 to 15 days
[9] = 125 g ai/ha, scale 0 to 100, 0 no effect, 100 complete control, 13 to 15 days
[10] = 250 g ai/ha, scale 0 to 100 (0 no effect, 100 complete control)
[11] = 62 g ai/ha, Preemergence, scale 0 to 100 (0 no effect, 100 complete control)
[12] = Preemergence, scale 0 to 100 (0 no effect, 100 complete control)
[13] = 125 g ai/ha, preemergence, scale 0 (no effect) to 100 (complete control)
[14] = preemergence, 250 g ai/ha, scale 0 (no effect) to 100 (complete control)
[15] = 250 g ai/ha, scale 0 to 100, 0 no effect, 100 complete control, 13 to 15 days

## CC(c1c(C(F)(F)F)nn(C)c1OC(F)F)S(=O)(=O)c1cc(C(C)(C)C)cc[n+]1[O-] (racemic) [Compound 26]
kochia; [2]
  Kochia plant response rating: 0
Wild oat; [2]
  Oat, Wild plant response rating: 60
Wild oat; Preemergence
  Plant response rating, Oat, Wild: 0
blackgrass; [2]
  Blackgrass plant response rating: 100
blackgrass; Preemergence
  Plant response rating, Blackgrass: 80
blackgrass; Preemergence, 250 g ai/ha
  Plant response rating (0 to 100), Blackgrass: 100
blackgrass; [3]
  Blackgrass plant response rating: 100
Catchweed bedstraw; [2]
  Galium plant response rating: 85
Catchweed bedstraw; Preemergence
  Plant response rating, Galium: 50
Catchweed bedstraw; Preemergence, 250 g ai/ha
  Plant response rating (0 to 100), Galium: 100
corn; [4]
  Corn plant response rating: 0
corn; [5]
  Corn plant response rating: 0
corn; [6]
  Corn plant response rating: 20
corn; Preemergence, 500 g ai/ha
  Plant response rating, Corn: 50
Duck salad; [7]
  Plant response rating, Ducksalad: 40
Duck salad; [8]
  Plant response rating, Ducksalad: 65
Duck salad; [9]
  Plant response rating, Ducksalad: 65
Duck salad; [10]
  Plant response rating, Ducksalad: 90
Redroot pigweed; [4]
  Pigweed plant response rating: 40
Redroot pigweed; [5]
  Pigweed plant response rating: 60
Redroot pigweed; [6]
  Pigweed plant response rating: 90
Redroot pigweed; Preemergence, 500 g ai/ha
  Plant response rating, Pigweed: 100
barnyardgrass; [7]
  Plant response rating, Barnyardgrass: 0
barnyardgrass; [8]
  Plant response rating, Barnyardgrass: 0
barnyardgrass; [9]
  Plant response rating, Barnyardgrass: 20
barnyardgrass; [10]
  Plant response rating, Barnyardgrass: 80
pigweed; [2]
  Pigweed plant response rating: 100
pigweed; Preemergence
  Plant response rating, Pigweed: 85
velvetleaf; [2]
  Velvetleaf plant response rating: 80
velvetleaf; Preemergence
  Plant response rating, Velvetleaf: 30
rice; [7]
  Plant response rating, Rice: 0
rice; [8]
  Plant response rating, Rice: 0
rice; [9]
  Plant response rating, Rice: 0
rice; [10]
  Plant response rating, Rice: 80
wheat; [2]
  Wheat plant response rating: 0
wheat; Preemergence
  Plant response rating, Wheat: 0
Surinam grass; [2]
  Surinam Grass plant response rating: 40
Surinam grass; Preemergence
  Plant response rating, Surinam Grass: 10
[1]; [2]
  Sunflower plant response rating: 0
[1]; Preemergence
  Plant response rating, Sunflower: 0
bermudagrass; [11]
  Bermudagrass plant response rating: 100
bermudagrass; [12]
  Plant response rating, Bermudagrass: 80
bermudagrass; Preemergence, 250 g ai/ha
  Plant response rating (0 to 100), Bermudagrass: 100
bermudagrass; [3]
  Bermudagrass plant response rating: 100
crabgrass; [2]
  Crabgrass, Large plant response rating: 100
crabgrass; Preemergence
  Plant response rating, Crabgrass, Large: 100
crabgrass; Preemergence, 250 g ai/ha
  Plant response rating (0 to 100), Crabgrass, Large: 100
Eastern black nightshade; [2]
  Nightshade plant response rating: 100
Eastern black nightshade; Preemergence
  Plant response rating, Nightshade: 100

## CC(c1c(C(F)(F)F)nn(CC(F)(F)F)c1Cl)[S+]([O-])c1cccc[n+]1[O-] (centres unmarked) [Compound 46]
kochia; [2]
  Kochia plant response rating: 50
kochia; [13]
  Kochia plant response rating: 100
kochia; Preemergence, 31 g ai/ha, scale 0 to 100 (0 no effect, 100 complete control)
  Plant response rating, Kochia: 50
kochia; [14]
  Kochia plant response rating: 100
Wild oat; [2]
  Oat, Wild plant response rating: 20
Wild oat; [13]
  Oat, Wild plant response rating: 20
Wild oat; Preemergence
  Plant response rating, Oat, Wild: 0
Wild oat; [14]
  Oat, Wild plant response rating: 50
blackgrass; [2]
  Blackgrass plant response rating: 100
blackgrass; [13]
  Blackgrass plant response rating: 100
blackgrass; Preemergence
  Plant response rating, Blackgrass: 70
blackgrass; [14]
  Blackgrass plant response rating: 100
Catchweed bedstraw; [2]
  Galium plant response rating: 0
Catchweed bedstraw; [13]
  Galium plant response rating: 85
Catchweed bedstraw; Preemergence
  Plant response rating, Galium: 0
Catchweed bedstraw; [14]
  Galium plant response rating: 90
corn; Postemergence, 125 g ai/ha
  Plant response rating, Corn: 0
corn; [5]
  Corn plant response rating: 0
corn; [6]
  Corn plant response rating: 0
corn; Preemergence, 500 g ai/ha
  Plant response rating, Corn: 0
Duck salad; [8]
  Plant response rating, Ducksalad: 10
Duck salad; [15]
  Plant response rating, Ducksalad: 20
Redroot pigweed; Postemergence, 125 g ai/ha
  Plant response rating, Pigweed: 40
Redroot pigweed; [5]
  Pigweed plant response rating: 50
Redroot pigweed; [6]
  Pigweed plant response rating: 10
Redroot pigweed; Preemergence, 500 g ai/ha
  Plant response rating, Pigweed: 100
barnyardgrass; [8]
  Plant response rating, Barnyardgrass: 10
barnyardgrass; [15]
  Plant response rating, Barnyardgrass: 60
pigweed; [2]
  Pigweed plant response rating: 90
pigweed; [13]
  Pigweed plant response rating: 100
pigweed; Preemergence
  Plant response rating, Pigweed: 0
pigweed; [14]
  Pigweed plant response rating: 100
velvetleaf; [2]
  Velvetleaf plant response rating: 0
velvetleaf; [13]
  Velvetleaf plant response rating: 0
velvetleaf; Preemergence
  Plant response rating, Velvetleaf: 0
velvetleaf; [14]
  Velvetleaf plant response rating: 60
rice; [8]
  Plant response rating, Rice: 10
rice; [15]
  Plant response rating, Rice: 55
wheat; [2]
  Wheat plant response rating: 100
wheat; [13]
  Wheat plant response rating: 100
wheat; Preemergence
  Plant response rating, Wheat: 100
wheat; [14]
  Wheat plant response rating: 100
Surinam grass; [2]
  Surinam Grass plant response rating: 85
Surinam grass; [13]
  Surinam Grass plant response rating: 100
Surinam grass; Preemergence
  Plant response rating, Surinam Grass: 85
Surinam grass; [14]
  Surinam Grass plant response rating: 100
[1]; [2]
  Sunflower plant response rating: 0
[1]; [13]
  Sunflower plant response rating: 0
[1]; Preemergence
  Plant response rating, Sunflower: 0
[1]; [14]
  Sunflower plant response rating: 40
bermudagrass; [11]
  Bermudagrass plant response rating: 100
bermudagrass; [13]
  Bermudagrass plant response rating: 100
bermudagrass; [12]
  Plant response rating, Bermudagrass: 100
bermudagrass; [14]
  Bermudagrass plant response rating: 100
crabgrass; [2]
  Crabgrass, Large plant response rating: 100
crabgrass; [13]
  Crabgrass, Large plant response rating: 100
crabgrass; Preemergence
  Plant response rating, Crabgrass, Large: 100
crabgrass; [14]
  Crabgrass, Large plant response rating: 100
Eastern black nightshade; [2]
  Nightshade plant response rating: 100
Eastern black nightshade; [13]
  Nightshade plant response rating: 100
Eastern black nightshade; Preemergence
  Plant response rating, Nightshade: 80
